Experimental findings from the supplement of paper PMC10307832 are described below.

What all share (assay): relative viability (nuclei count vs DMSO), 5 days (fraction); higher = more cells survive
Compound in test [1]: C1/C(=C\C2=CC=CS2)/C(=O)/C(=C/C3=CC=CS3)/C1 + O=C(CCCCCCC(=O)Nc1ccccc1)NO [Vorinostat] (partner 1 µM)
In a few lines:
(§1)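 A single step with final 0.05% Triton X-100, 1% formaldehyde and 1 ug/ml Hoechst fixed the cells and stained nuclei 5 days after treatment. Lung cancer cell lines in 1536-well plates had been treated by pin tool the day after seeding with one drug alone or a fixed anchor-drug dose plus five library-drug doses (not always all listed) in √10 steps, and nuclei were counted on 4× images. Relative viability is the ratio of nuclei in treated wells to nuclei in vehicle wells, taken as the median of duplicate plates.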

Compound in test [2]: C[C@]12O[C@H](C[C@]1(O)CO)n1c3ccccc3c3c4c(c5c6ccccc6n2c5c31)CNC4=O [Lestaurtinib] + CC(C)C[C@H](NC(=O)[C@H](Cc1ccccc1)NC(=O)c1cnccn1)B(O)O [Bortezomib] (partner 0.002 µM)
A digest of the protocol: as §1

Compound in the test “TPCA-1 + Bortezomib”: C1=CC(=CC=C1C2=CC(=C(S2)NC(=O)N)C(=O)N)F [TPCA-1] + CC(C)C[C@H](NC(=O)[C@H](Cc1ccccc1)NC(=O)c1cnccn1)B(O)O [Bortezomib] (partner 0.002 µM)
In a few lines: as §1

Compound in the test “Lestaurtinib + OSI-027”: C[C@]12O[C@H](C[C@]1(O)CO)n1c3ccccc3c3c4c(c5c6ccccc6n2c5c31)CNC4=O [Lestaurtinib] + COc1cccc2cc(-c3nc([C@H]4CC[C@H](C(=O)O)CC4)n4ncnc(N)c34)[nH]c12 [OSI-027] (partner 0.5 µM)
A digest of the protocol: as §1

As to UMC-11, the relative viability stood at 0.361 in test [1] (first compound 0.2 µM); 0.36 in test [1] (first compound 0.6325 µM); 0.43 in test [1] (first compound 2 µM); 0.26 in test [1] (first compound 6.325 µM); 0.394 in test [1] (first compound 20 µM); 0.602 in test [2] (first compound 0.005 µM). For the same cell line, the relative viability in test [2] (first compound 0.01581 µM) is 0.621; in test [2] (first compound 0.05 µM), 0.321; in test [2] (first compound 0.1581 µM), 0.299; in test [2] (first compound 0.5 µM) it was 0.171; in the test with TPCA-1 + Bortezomib (first compound 0.04 µM), 0.663; in the test with TPCA-1 + Bortezomib (first compound 0.1265 µM) it was 0.667. The relative viability is 0.798 with TPCA-1 + Bortezomib (first compound 0.4 µM); 0.735 in the test with TPCA-1 + Bortezomib (first compound 1.265 µM); 0.134 with TPCA-1 + Bortezomib (first compound 4 µM); 0.48 with Lestaurtinib + OSI-027 (first compound 0.005 µM); 0.385 in the test with Lestaurtinib + OSI-027 (first compound 0.01581 µM); 0.293 with Lestaurtinib + OSI-027 (first compound 0.05 µM). Besides, the relative viability turned out to be 0.283 with Lestaurtinib + OSI-027 (first compound 0.1581 µM) and 0.177 in the test with Lestaurtinib + OSI-027 (first compound 0.5 µM).
